The text below walks through data of PubChem BioAssay AID652247 (Sanford-Burnham Center for Chemical Genomics, 2013).

The source made the active and inactive calls. The rule behind the calls is not given here.

By IC50 is commonly meant the concentration needed to halve the response being measured.

Chain of NEDD8-conjugating enzyme Ubc12 (Homo sapiens) + NEDD8-activating enzyme E1 regulatory subunit (Homo sapiens) (P61081 whole entry, looked up): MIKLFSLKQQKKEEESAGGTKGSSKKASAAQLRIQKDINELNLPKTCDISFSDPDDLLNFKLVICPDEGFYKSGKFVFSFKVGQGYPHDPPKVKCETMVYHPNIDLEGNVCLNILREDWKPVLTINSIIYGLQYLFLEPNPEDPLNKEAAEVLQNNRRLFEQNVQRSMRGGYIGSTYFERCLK
Chain of NEDD8-conjugating enzyme Ubc12 (Homo sapiens) + NEDD8-activating enzyme E1 regulatory subunit (Homo sapiens) (Q13564 whole entry, looked up): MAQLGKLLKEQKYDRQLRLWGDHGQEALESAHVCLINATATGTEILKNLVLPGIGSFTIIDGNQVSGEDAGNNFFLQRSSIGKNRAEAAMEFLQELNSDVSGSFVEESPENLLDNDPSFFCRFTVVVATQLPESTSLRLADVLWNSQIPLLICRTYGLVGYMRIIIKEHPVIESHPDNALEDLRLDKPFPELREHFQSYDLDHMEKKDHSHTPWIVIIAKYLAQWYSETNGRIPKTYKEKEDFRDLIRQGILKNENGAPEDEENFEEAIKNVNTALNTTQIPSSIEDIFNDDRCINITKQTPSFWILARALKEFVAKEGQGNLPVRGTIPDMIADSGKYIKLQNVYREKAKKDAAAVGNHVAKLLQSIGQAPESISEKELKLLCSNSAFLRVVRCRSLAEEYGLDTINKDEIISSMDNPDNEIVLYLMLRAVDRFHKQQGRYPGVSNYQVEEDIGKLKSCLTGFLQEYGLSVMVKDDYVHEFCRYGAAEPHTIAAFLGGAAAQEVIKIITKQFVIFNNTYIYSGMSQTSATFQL

This assay concerns the target NEDD8-conjugating enzyme Ubc12 (Homo sapiens) + NEDD8-activating enzyme E1 regulatory subunit (Homo sapiens) (UniProt P61081+Q13564). Briefly: NEDD8 conjugation to CUL1 blockade – biochemical, TR-FRET, dose response (AID 652247). The conditions noted are these: in vitro CUL1 neddylation. (In TR-FRET formats the signal depends on donor and acceptor labels being close together.)
Turning to `COCc1cc(C)nc(NC2CC(C)(C)NC(C)(C)C2)c1C#N`, the IC50 result was “inactive”.

Turning to `CCOC(=O)N1CCN(S(=O)(=O)c2ccc3c4c(cccc24)C(=O)N3)CC1`, the IC50 result was “inactive”.

Turning to `Cc1ccc(C(C(=O)NCC2CCCO2)N(C(=O)c2snc(C(N)=O)c2N)c2ccc(F)cc2)o1` (stereo not drawn), the IC50 is > 100 µM (inactive).

In the case of `COc1cccc(Cn2cc(/C=N/NC(=O)c3cc(O)cc(O)c3)c3ccccc32)c1`, the IC50 entry was “inactive”.

As to `Cc1ccc(C(=O)N/C(=C\c2cccs2)c2nc3ccccc3[nH]2)cc1`, the IC50 result was “inactive”.

On to `CCc1ccc(-c2cnc3nc[nH]c(=O)c3n2)cc1`, for which the IC50 is 14.4 µM.

In the case of `N=c1c(C(=O)NCCN2CCOCC2)cc2c(=O)n3ccccc3nc2n1Cc1ccc(F)cc1`, the IC50 was 16.5 µM.

In the case of `O=C(N/N=C/c1cccnc1)c1ccc(CN2c3cccc4cccc(c34)S2(=O)=O)cc1`, the IC50 result is “inactive”.

As to `CCCCn1c(O)c(/C=N/NC(=O)c2ccncc2)c(=O)[nH]c1=S`, the IC50 result was “inactive”.

On to `O=C(Nc1cc(C(=O)Nc2ccccc2C(=O)O)cc(C(=O)Nc2ccccc2C(=O)O)c1)c1ccccc1`, for which the IC50 is > 100 µM (inactive).

For the compound `Cc1ccc2c(c1)COc1c3ccc(C(=O)NCCO)cc3nn1-2`, the IC50 result was “inactive”.

Turning to `N#Cc1c2c(c(NCCOCCO)n3c1nc1ccccc13)CCCC2`, the IC50 entry is “inactive”.

On to `CN(C)c1ccc(/C=N/NC(=O)CCc2nc3ccccc3[nH]2)cc1`, for which the IC50 entry was “inactive”.

On to `O=c1[nH]cnc2nc(-c3ccccc3)c(-c3ccccc3)nc12`, for which the IC50 entry was “inactive”.

With `Cc1cccn2c(=O)c3cc(C(=O)NC4CCCC4)sc3nc12`, the IC50 was 9.39 µM.

Consider `COCCNC(=O)c1ccc2c3n(nc2c1)-c1ccc(C)cc1CO3`, for which the IC50 entry was “inactive”.

Consider `Cc1nn(C)cc1CN(C)C(=O)c1cc2nc(-c3ccco3)cc(C(F)(F)F)n2n1`, for which the IC50 entry is “inactive”.

Regarding `OC1CCCN(Cc2c3ccccc3cc3ccccc23)C1` (stereo not drawn), the IC50 result was “inactive”.

For `CC(=O)Nc1nc(C)c(-c2csc(Nc3ccc(S(N)(=O)=O)cc3)n2)s1`, the IC50 was 11.7 µM.

Turning to `Cc1cc(=O)oc2cc(NC(=O)CN3C(=O)NC(C)(c4ccccc4)C3=O)ccc12` (stereo not drawn), the IC50 result was “inactive”.

`Cc1ccc2cc3cc(C(=O)NCCCN4CCc5ccccc5C4)oc3nc2c1`: the IC50 was 10.6 µM.

In the case of `Cn1c(=O)c(-c2ccccc2)nc2ccccc21`, the IC50 result was “inactive”.

With `COC(=O)c1ccc(/C=C2\CCn3c2nc2cc(C(=O)O)ccc2c3=O)cc1`, the IC50 entry is “inactive”.

Regarding `CC(=O)Nc1cc(-c2ccc(N3CCN(C)CC3)cc2)cn2c(-c3ccc(F)cc3)cnc12`, the IC50 result is “inactive”.

As to `c1ccc(C[n+]2cccc3c4ccccc4ccc32)cc1`, the IC50 is 9.52 µM.

On to `COc1ccc(OC)c(C=NNC(=O)c2ccccc2NS(=O)(=O)c2cccs2)c1`, for which the IC50 result was “inactive”.

As to `COc1cc(-c2cc(C(=O)N3CCCCCC3)c3ccccc3n2)cc(OC)c1OC`, the IC50 entry is “inactive”.

For `O=C1NC(=O)c2cc3ccccc3cc21`, the IC50 was > 100 µM (inactive).

On to `COC(=O)c1ccc(C(=O)OC)c(=O)[nH]1`, for which the IC50 result is “inactive”.

In the case of `COc1cccc(N(C(=O)c2snc(C(N)=O)c2N)C(C(=O)NCc2ccccc2)c2ccc(O)cc2)c1` (stereo not drawn), the IC50 entry was “inactive”.

For `COc1ccc(-n2cc(CNCc3cnc4ccccn34)c(-c3cccc(F)c3)n2)cc1`, the IC50 entry was “inactive”.

With `O=C(CCc1ccccc1)Nc1nnc(-c2ccccn2)o1`, the IC50 result is “inactive”.

For `Cc1ccccc1NC(=O)NNC(=O)c1ccc2ccccc2c1O`, the IC50 entry was “inactive”.

For `COCCNc1c2c(c(C#N)c3nc4ccccc4n13)CCCC2`, the IC50 entry was “inactive”.

On to `Cn1ncc2cc3c(Nc4ccc(Cl)cc4)cccc3nc21`, for which the IC50 entry was “inactive”.

For the compound `COc1ccc(OCC(=O)N/N=C/c2ccc(N(C)C)cc2)cc1`, the IC50 entry was “inactive”.

Take `CCOc1ccc2[nH]c(C(=O)N/N=C/c3cccc(OC)c3OC)cc2c1`: the IC50 result was “inactive”.

Consider `CN(C)CCn1c(SCc2ccccc2C#N)nc2c(sc3ccccc32)c1=O`, for which the IC50 entry is “inactive”.

For the compound `CCOC(=O)CNC(=O)c1sc(NC(=O)c2ccccc2F)nc1C`, the IC50 entry is “inactive”.

Take `Nc1ncnc2c1ncn2[C@@H]1O[C@H](COP(=O)(O)O)[C@@H](O)[C@H]1O`: the IC50 entry was “inactive”.

On to `CSc1ccc(/C=N/n2nnnc2N)cc1`, for which the IC50 entry was “inactive”.

For the compound `COc1ccc(CC(=O)N/N=C\c2cc(Br)c(O)c(Br)c2)cc1`, the IC50 entry was “inactive”.

For `Oc1ccc(Br)cc1C=Nc1ccc2c3c(cccc13)CC2`, the IC50 is 12.1 µM.

Take `Nc1c(C(=O)Nc2ccccc2)c2nc3ccccc3nc2n1CCCN1CCOCC1`: the IC50 entry is “inactive”.

As to `Cc1cccc(C)c1NC(=O)C(C1CC1)n1c(=O)c(-c2ccccc2)nc2ccccc21` (stereo not drawn), the IC50 result is “inactive”.

Consider `CC1CCN(C(=O)CN2c3cccc4cccc(c34)S2(=O)=O)CC1`, for which the IC50 entry was “inactive”.

For the compound `COC(=O)C1C(O)=C(C=Nc2cccc3ccccc23)C(=O)CC1(C)C` (stereo not drawn), the IC50 entry is “inactive”.

With `CCOC(=O)c1cc2c(=O)n3ccccc3nc2n(CCOC)c1=NC(=O)c1ccncc1`, the IC50 result was “inactive”.

Turning to `Cc1c(C(C)NC(=O)c2cc(COc3cccc4cnccc34)on2)cnn1C` (stereo not drawn), the IC50 result was “inactive”.

With `CN1CCOc2c1cnn(CCO)c2=O`, the IC50 entry is “inactive”.

Consider `CN(C)c1ccc(/C=N/NC(=O)C2CC2c2ccccc2)cc1` (stereo not drawn), for which the IC50 entry was “inactive”.

For `Cc1ccc(-c2cc(C(=O)NCCCN3CCOCC3)c3ccccc3n2)cc1`, the IC50 result was “inactive”.

In the case of `CCOc1ccc(NC(=O)COC(=O)c2ccc3ncsc3c2)cc1OCC`, the IC50 result is “inactive”.

For the compound `CCCCCCc1c(C)c2ccc(OCC(=O)N3CCC[C@H]3C(=O)O)c(C)c2oc1=O`, the IC50 entry was “inactive”.

For the compound `c1cnc2cc(-c3ccsc3)ncc2c1`, the IC50 result is “inactive”.

Regarding `O=C(CSc1cccc2cccnc12)Nc1cc(C(=O)O)cc(C(=O)O)c1`, the IC50 entry is “inactive”.

On to `COc1ccc(Cl)cc1NC(=O)Cn1nnc(C(=O)NCc2ccc3c(c2)OCO3)c1N`, for which the IC50 is 10.4 µM.

`COc1ccccc1N1CCN(C(=O)c2cc3c(=O)n4cccc(C)c4nc3s2)CC1`: the IC50 entry is “inactive”.

Regarding `Cc1ccc2oc(-c3ccco3)cc(=O)c2c1`, the IC50 entry was “inactive”.

Consider `COCc1cc(C)nc2sc(C(=O)Nc3ccc(OC)cc3)c(N)c12`, for which the IC50 is > 100 µM (inactive).

For `O=C(NC1CCCCC1)c1cnn2c(C(F)(F)F)cc(-c3ccco3)nc12`, the IC50 result was “inactive”.

Regarding `COc1ccc2cc3cc(C(=O)NCCc4ccc(OC)c(OC)c4)oc3nc2c1`, the IC50 was 19.7 µM.

For `CC(NC(=O)C1=CC=CN2CCS(=O)(=O)N=C12)c1ccc(Cl)c(Cl)c1` (stereo not drawn), the IC50 entry was “inactive”.

Take `COc1ccc(C[C@H]2c3cc(O)c(OC)cc3CC[N+]2(C)[O-])cc1O` (stereo partly drawn): the IC50 entry was “inactive”.

For the compound `COC(=O)c1ccc2[nH]c3c(c2c1)CC(C)CC3` (stereo not drawn), the IC50 result was “inactive”.

On to `c1cn2c(-c3ccoc3)cncc2n1`, for which the IC50 entry is “inactive”.

For `Cc1ccc(-n2c3nc(=O)n(C)c(=O)c-3cc3ccccc32)cc1`, the IC50 is 17.9 µM.

For the compound `Cc1cc(NS(=O)(=O)c2ccc(NS(=O)(=O)c3ccc(Br)cc3)cc2)no1`, the IC50 result was “inactive”.

Take `COc1ccc(/C=C/c2ccc(=O)n(Cc3ccccc3)n2)cc1`: the IC50 is > 100 µM (inactive).

For the compound `COc1ccc(-c2cc3ccc(OCc4nn[nH]n4)cc3oc2=O)cc1OC`, the IC50 was 6.88 µM.

Turning to `COc1ccc(C(CC(=O)N2CCCCC2)c2c(OC)cc(OC)c3ccc(=O)oc23)cc1` (stereo not drawn), the IC50 entry was “inactive”.

`COc1cc(C=NNC(=O)c2ccc(NS(=O)(=O)c3cccs3)cc2)cc(Br)c1O`: the IC50 result was “inactive”.

For the compound `Cc1cccn2c(=O)c3cc(C(=O)N4CCN(Cc5ccccc5)CC4)sc3nc12`, the 50% inhibitory concentration (IC50) was 17.9 µM.

For the compound `CC(=O)c1ccc(-c2ccc(C(=O)NCC(c3ccc(F)cc3)N3CCOCC3)o2)cc1` (stereo not drawn), the IC50 result was “inactive”.

As for `COc1cc(F)ccc1-c1cc(C(=O)Nc2ccc(NC(C)=O)cc2)[nH]n1`, the IC50 is 19.4 µM.

On to `CN(C)c1ccc(-c2nc3cnccn3c2Nc2ccc3c(c2)OCCO3)cc1`, for which the IC50 entry is “inactive”.

On to `CS(=O)(=O)c1ccc2nc(NC(=O)c3ccc(Cl)nc3)sc2c1`, for which the IC50 was 14 µM.

As for `CS(=O)(=O)N(CC(=O)N/N=C/c1cccc2c1OCCO2)c1ccccc1Br`, the IC50 entry was “inactive”.

`O=C(O)c1ccc2c(=O)n3c(nc2c1)/C(=C/c1ccc(C(F)(F)F)cc1)CC3`: the IC50 result was “inactive”.

Turning to `COC(=O)c1sc2nc3c(cc2c1N)COC(C)(C)C3`, the IC50 result was “inactive”.

`O=C(O)Cn1c(=O)c(-c2ccccc2)nc2ccccc21`: the IC50 entry was “inactive”.

Take `C=CCNC(=O)c1ccc2c3n(nc2c1)-c1ccc(C)cc1CO3`: the IC50 result is “inactive”.

Regarding `Cc1cc(-c2ccccc2)c2nncn2n1`, the IC50 entry was “inactive”.

On to `Cc1ccc2cc3cc(C(=O)NCCN4CCOCC4)oc3nc2c1`, for which the IC50 is 16.9 µM.

As to `O=c1oc2ccccc2cc1-c1cn2cccnc2n1`, the IC50 entry is “inactive”.

On to `c1cc2c3c(cccc3c1)-c1cnccc1-2`, for which the IC50 result was “inactive”.

Consider `COc1ccc2cc(C(=O)N/N=C/c3cc(OC)c(OC)c(OC)c3)[nH]c2c1`, for which the IC50 result is “inactive”.

Take `CCCCc1c(O)n2c(nc3ccccc32)[nH]c1=O`: the IC50 entry is “inactive”.

Regarding `O=C(Nc1cccnc1Cl)c1cc(-c2cccc(O)c2)on1`, the IC50 was 13.9 µM.

On to `CCN(CC)c1ccc(/C=N/NC(=O)CC(C)C)cc1`, for which the IC50 entry is “inactive”.

For the compound `O=C(O)c1sc2cc(C(F)(F)F)cnc2c1-c1cccs1`, the IC50 result was “inactive”.

Take `COc1ccc(Nc2cc3n(c(=O)n2)CCc2cc(OC)c(OC)cc2-3)cc1`: the IC50 entry is “inactive”.

Consider `COc1ccc2[nH]c(C(=O)N/N=C/c3cc(OC)c(OC)c(OC)c3)cc2c1`, for which the IC50 entry was “inactive”.
